Laboratory results from patent US20020165233A1, “Quinoxaline containing medicaments for post exposure prophylaxis of an HIV infection” (priority 1999, published 2002).

What was measured:
[1] = system: RT-SHIV; assay: Quantitative virus isolation (QVI) from PBMC co-cultured with C8166 and viral RNA PCR of culture supernatant; assay type: in vivo, rhesus monkeys; design: key to viral RNA PCR of QVI culture supernatant: +=positive; −=negative
Protocol: (§1) Nine rhesus monkeys (male, 2 years old, 2-3 kg) were seronegative for SIV, Simian T cell Leukemia Virus (STLV), B virus and Type D retroviruses. 15 mg/kg body weight of COMPOUND A was subcutaneously administered into animals twice a day (12 h interval) for 28 d. Animals were divided into three groups. All animals were intravenously administered with 100 TCID50 of RT-SHIV The first group consisted of three animals treated with COMPOUND A from 8 h post exposure for 28 d. The second group of animals was treated with COMPOUND A from 24 h post exposure for 28 d. The third group (control) received the solvent that was used to dissolve COMPOUND A (PEG400:glycerol:water=[…]) from 8 h post exposure for 28 d.
(§2) Blood was collected from all the animals either just before or 2 h after the drug administration on 0, 3, 7, 10, 14, 21, 29 d post exposure in order to check the drug concentration, otherwise in intervals of 2 to 8 weeks. Biopsy of inguinal lymph nodes was conducted on 17 d or 18 d and 8 weeks post exposure in two animals per group. Cerebrospinal fluid (CSF) was collected from the animals just before biopsy.
Viral RNA was detected from 7 or 10 d post exposure up to 40 weeks post exposure in all plasma specimen from two animals (FIG. 2). […] While in two animals plasma viral RNA levels persisted around 10^5 copy/ml after a moderate reduction occurred at 4 weeks post exposure, viral RNA levels in one animal declined to about 10^3 copy/ml after 15 weeks post exposure (FIG. 2). The RT-SHIV infection in PIBMC was monitored by quantitative virus isolation (QVI) and quantitative PCR assay of proviral DNA. Serially diluted PBMC were co-cultured with C8166 to determine the minimal PBMC cell number to provoke a productive infection of C8166 cells. The number from the QVI test indicates infectious cells per one million PBMC. QVI results were consistent with plasma viral RNA levels. The numbers indicates the results of QVI. A + or − on the right indicates results of viral RNA PCR assay for the detection of virus in culture supernatant. +=positive, −=negative.

[2] = system: RT-SHIV; assay: Anti-SIV ELISA (humoral response); assay type: in vivo, rhesus monkeys
Protocol: as §1
1:100 fold diluted plasma was assayed with ELISA plates coated with SIVmac239 virion lysate. Antibody titer was monitored by measuring the absorbance at 492 nm.

[3] = design: species or system rhesus monkeys; details: rhesus monkey, in vivo, sc, 15 mg/kg
Protocol: as §1, §2
Determination of COMPOUND A Concentration in Plasma and CSF:
Blood was collected from all animals just before or 2 h after drug administration to check trough (lowest) or highest blood concentration of the drug. COMPOUND A concentration in CSF was determined by HPLC.

[4] = system: RT-SHIV; assay: Cytotoxic lymphocytes (CTL) assay against env and gag-pol; assay type: in vivo, rhesus monkeys; details: treated animals; all time points tested (3 w to 40 w post exposure)
[5] = design: species or system rhesus monkeys; details: rhesus monkey, in vivo, sc, 15 mg/kg; remark: listed apart in the source
Protocol: as §1

[6] = system: RT-SHIV; assay: env specific cell proliferation assay; assay type: in vivo, rhesus monkeys
Protocol: as §1
Cell Proliferation Assay:
The method used was described previously [J. Virol, 1996: 70, 678-681]. In brief, PBMC was thawed and incubated as described in the CTL assay. Triplicates of PBMC (4×10^5) cells were incubated with autologous B-LCL (1×10^5) that had been infected with SIV env-rvv or control vv and fixed with 1.5% paraformaldehyde in phosphate buffered saline (PBS). ^3H-thymidine was added to 8 h before harvesting. The incorporation of ^3H-thymidine was measured by liquid scintillation counting. The stimulation index was calculated as (mean c.p.m. of PBMC cultured with env-rvv/mean c.p.m. of PBMC cultured with control vv).

[7] = animal #1, 15 mg/kg s.c. b.i.d. 8h thru 28 d post exp, week 6 post exp.
[8] = animal #1, 15 mg/kg s.c. b.i.d. 8h thru 28 d post exp, week 8 post exp.
[9] = animal #1, 15 mg/kg s.c. b.i.d. 8h thru 28 d post exp, week 11 post exp.
[10] = animal #3, 15 mg/kg s.c. b.i.d. 24h thru 28 d post exp., week 6 post exp.
[11] = animal #3, 15 mg/kg s.c. b.i.d. 24h thru 28 d post exp., week 8 post exp.
[12] = animal #3, 15 mg/kg s.c. b.i.d. 24h thru 28 d post exp., week 11 post exp.
[13] = animal #4, 15 mg/kg s.c. b.i.d. 24h thru 28 d post exp., week 8 post exp.
[14] = animal #10, 15 mg/kg s.c. b.i.d. 8h thru 28 d post exp, week 6 post exp.
[15] = animal #10, 15 mg/kg s.c. b.i.d. 8h thru 28 d post exp, week 8 post exp.
[16] = animal #10, 15 mg/kg s.c. b.i.d. 8h thru 28 d post exp, week 11 post exp.
[17] = animal #11, 15 mg/kg s.c. b.i.d. 24h thru 28 d post exp., week 8 post exp.
[18] = animal #11, 15 mg/kg s.c. b.i.d. 24h thru 28 d post exp., week 11 post exp.

Structure (SMILES): CC[C@H]1C(=O)Nc2ccc(F)cc2N1C(=O)OC(C)C [Compound A, (3S)-ethyl-6-fluoro-4-isopropyloxycarbonyl-3,4-dihydroquinoxalin-2(1H)-one]
- viral RNA PCR of QVI culture supernatant ([1]; animal #1, 15 mg/kg s.c. b.i.d. 8h thru 28 d post exp, week 2 post exp.): −/−
- Quantitative virus isolation (QVI) [1, 7]: 4 infectious cells per one million PBMC
- viral RNA PCR of QVI culture supernatant [1, 7]: +
- Quantitative virus isolation (QVI) [1, 8]: 16 infectious cells per one million PBMC
- viral RNA PCR of QVI culture supernatant [1, 8]: +
- Quantitative virus isolation (QVI) [1, 9]: 4 infectious cells per one million PBMC
- viral RNA PCR of QVI culture supernatant [1, 9]: +
- viral RNA PCR of QVI culture supernatant ([1]; animal #1, 15 mg/kg s.c. b.i.d. 8h thru 28 d post exp, week 15 post exp.): −/−
- viral RNA PCR of QVI culture supernatant ([1]; animal #3, 15 mg/kg s.c. b.i.d. 24h thru 28 d post exp., week 2 post exp.): −/−
- Quantitative virus isolation (QVI) [1, 10]: 16 infectious cells per one million PBMC
- viral RNA PCR of QVI culture supernatant [1, 10]: +
- Quantitative virus isolation (QVI) [1, 11]: 16 infectious cells per one million PBMC
- viral RNA PCR of QVI culture supernatant [1, 11]: +
- Quantitative virus isolation (QVI) [1, 12]: 16 infectious cells per one million PBMC
- viral RNA PCR of QVI culture supernatant [1, 12]: +
- viral RNA PCR of QVI culture supernatant ([1]; animal #3, 15 mg/kg s.c. b.i.d. 24h thru 28 d post exp., week 15 post exp.): −/−
- viral RNA PCR of QVI culture supernatant ([1]; animal #4, 15 mg/kg s.c. b.i.d. 24h thru 28 d post exp., week 2 post exp.): −/−
- viral RNA PCR of QVI culture supernatant ([1]; animal #4, 15 mg/kg s.c. b.i.d. 24h thru 28 d post exp., week 6 post exp.): −/−
- Quantitative virus isolation (QVI) [1, 13]: 1 infectious cells per one million PBMC
- viral RNA PCR of QVI culture supernatant [1, 13]: +
- viral RNA PCR of QVI culture supernatant ([1]; animal #4, 15 mg/kg s.c. b.i.d. 24h thru 28 d post exp., week 11 post exp.): −/−
- viral RNA PCR of QVI culture supernatant ([1]; animal #4, 15 mg/kg s.c. b.i.d. 24h thru 28 d post exp., week 15 post exp.): −/−
- viral RNA PCR of QVI culture supernatant ([1]; animal #5, 15 mg/kg s.c. b.i.d. 8h thru 28 d post exp, week 2 post exp.): −/−
- viral RNA PCR of QVI culture supernatant ([1]; animal #5, 15 mg/kg s.c. b.i.d. 8h thru 28 d post exp, week 6 post exp.): −/−
- viral RNA PCR of QVI culture supernatant ([1]; animal #5, 15 mg/kg s.c. b.i.d. 8h thru 28 d post exp, week 8 post exp.): −/−
- viral RNA PCR of QVI culture supernatant ([1]; animal #5, 15 mg/kg s.c. b.i.d. 8h thru 28 d post exp, week 11 post exp.): −/−
- viral RNA PCR of QVI culture supernatant ([1]; animal #5, 15 mg/kg s.c. b.i.d. 8h thru 28 d post exp, week 15 post exp.): −/−
- viral RNA PCR of QVI culture supernatant ([1]; animal #10, 15 mg/kg s.c. b.i.d. 8h thru 28 d post exp, week 2 post exp.): −/−
- Quantitative virus isolation (QVI) [1, 14]: 1 infectious cells per one million PBMC
- viral RNA PCR of QVI culture supernatant [1, 14]: +
- Quantitative virus isolation (QVI) [1, 15]: 16 infectious cells per one million PBMC
- viral RNA PCR of QVI culture supernatant [1, 15]: +
- Quantitative virus isolation (QVI) [1, 16]: 4 infectious cells per one million PBMC
- viral RNA PCR of QVI culture supernatant [1, 16]: +
- viral RNA PCR of QVI culture supernatant ([1]; animal #10, 15 mg/kg s.c. b.i.d. 8h thru 28 d post exp, week 15 post exp.): −/−
- viral RNA PCR of QVI culture supernatant ([1]; animal #11, 15 mg/kg s.c. b.i.d. 24h thru 28 d post exp., week 2 post exp.): −/−
- viral RNA PCR of QVI culture supernatant ([1]; animal #11, 15 mg/kg s.c. b.i.d. 24h thru 28 d post exp., week 6 post exp.): −/−
- Quantitative virus isolation (QVI) [1, 17]: 4 infectious cells per one million PBMC
- viral RNA PCR of QVI culture supernatant [1, 17]: +
- Quantitative virus isolation (QVI) [1, 18]: 4 infectious cells per one million PBMC
- viral RNA PCR of QVI culture supernatant [1, 18]: +
- viral RNA PCR of QVI culture supernatant ([1]; animal #11, 15 mg/kg s.c. b.i.d. 24h thru 28 d post exp., week 15 post exp.): −/−
- induction of humoral response against RT-SHIV ([2]; ELISA against SIV virion proteins, untreated sero-positive at 4 weeks): delayed induction of humoral response
- treated animals sero-positive ([2]; at 11 weeks post exp.): Two of six
- humoral response of animal #5 ([2]; late course): eventually lost its humoral response
- concentration in cerebral spinal fluid (CSF) relative to blood [3]: approximately one tenth
- minimum level of the drug [3]: higher than the effective minimal concentration
- trough concentration relative to the IC90 value [3]: 3 fold
- CTL activity against env and gag-pol [4]: constant high CTL activity
- adverse effect [5]: without any adverse effect
- proliferative response at week 40 ([6]; all treated animals versus untreated group): levels higher than those of the untreated group
- env specific proliferative responses ([6]; all treated animals, 3 weeks through 40 weeks post exposure, versus untreated): Significantly higher
